Measurements published in ChEMBL document CHEMBL1125035, “Synthesis and biological activity of novel vitamin D analogues: 24,24-difluoro-25-hydroxy-26,27-dimethylvitamin D3 and 24,24-difluoro-1 alpha,25-dihydroxy-26,27-dimethylvitamin D3” (1990).

Tests used:
[1] = system: Rattus norvegicus; assay: Ability to stimulate intestinal-calcium transport by the administration of compound in rats at a concentration of 5000 pmol at 12 hr.; assay type: functional, Intestine
[2] = system: Rattus norvegicus; assay: Ability to stimulate intestinal-calcium transport by the administration of compound in rats at a concentration of 50 pmol at 12 hr.; assay type: functional, Intestine
[3] = system: Rattus norvegicus; assay: Ability to mobilize Bone-Calcium transport, following the administration of compound in rats at a concentration of 50 pmol at 12 hr.; assay type: functional, organism-based
[4] = system: Rattus norvegicus; assay: Ability to stimulate intestinal-calcium transport by the administration of compound in rats at a concentration of 50 pmol at 48 hr.; assay type: functional, Intestine
[5] = system: Rattus norvegicus; assay: Ability to mobilize Bone-Calcium transport, following the administration of compound in rats at a concentration of 50 pmol at 48 hr.; assay type: functional, organism-based
[6] = system: Rattus norvegicus; assay: Ability to stimulate intestinal-calcium transport by the administration of compound in rats at a concentration of 500 pmol at 48 hr.; assay type: functional, Intestine
[7] = system: Rattus norvegicus; assay: Ability to mobilize Bone-Calcium transport, following the administration of compound in rats at a concentration of 5000 pmol at 12 hr.; assay type: functional, organism-based
[8] = system: Rattus norvegicus; assay: Ability to mobilize Bone-Calcium transport, following the administration of compound in rats at a concentration of 5000 pmol at 48 hr.; assay type: functional, organism-based
[9] = system: Rattus norvegicus; assay: Ability to mobilize Bone-Calcium transport, following the administration of compound in rats at a concentration of 5 pmol at 69 hr.; assay type: functional, organism-based
[10] = system: Rattus norvegicus; assay: Ability to mobilize Bone-Calcium transport, following the administration of compound in rats at a concentration of 5 pmol at 48 hr.; assay type: functional, organism-based
[11] = system: Rattus norvegicus; assay: Ability to stimulate intestinal-calcium transport by the administration of compound in rats at a concentration of 5000 pmol at 48 hr.; assay type: functional, Intestine
[12] = system: Rattus norvegicus; assay: Ability to mobilize Bone-Calcium transport, following the administration of compound in rats at a concentration of 500 pmol at 48 hr.; assay type: functional, organism-based
[13] = system: Rattus norvegicus; assay: Ability to stimulate intestinal-calcium transport by the administration of compound in rats at a concentration of 5 pmol at 12 hr.; assay type: functional, Intestine
[14] = system: Rattus norvegicus; assay: Ability to stimulate intestinal-calcium transport by the administration of compound in rats at a concentration of 5 pmol at 69 hr.; assay type: functional, Intestine
[15] = system: Rattus norvegicus; assay: Ability to stimulate intestinal-calcium transport by the administration of compound in rats at a concentration of 50 pmol at 69 hr.; assay type: functional, Intestine
[16] = system: Rattus norvegicus; assay: Ability to mobilize Bone-Calcium transport, following the administration of compound in rats at a concentration of 500 pmol at 12 hr.; assay type: functional, organism-based
[17] = system: Rattus norvegicus; assay: Ability to stimulate intestinal-calcium transport by the administration of compound in rats at a concentration of 5000 pmol at 69 hr.; assay type: functional, Intestine
[18] = system: Rattus norvegicus; assay: Ability to mobilize Bone-Calcium transport, following the administration of compound in rats at a concentration of 50 pmol at 69 hr.; assay type: functional, organism-based
[19] = system: Rattus norvegicus; assay: Ability to mobilize Bone-Calcium transport, following the administration of compound in rats at a concentration of 5 pmol at 12 hr.; assay type: functional, organism-based
[20] = system: Rattus norvegicus; assay: Ability to stimulate intestinal-calcium transport by the administration of compound in rats at a concentration of 5000 pmol at 13 hr.; assay type: functional, Intestine
[21] = system: Rattus norvegicus; assay: Ability to stimulate intestinal-calcium transport by the administration of compound in rats at a concentration of 500 pmol at 72 hr.; assay type: functional, Intestine
[22] = system: Rattus norvegicus; assay: Ability to stimulate intestinal-calcium transport by the administration of compound in rats at a concentration of 500 pmol at 13 hr.; assay type: functional, Intestine
[23] = system: Rattus norvegicus; assay: Ability to mobilize Bone-Calcium transport, following the administration of compound in rats at a concentration of 5 pmol at 13 hr.; assay type: functional, organism-based
[24] = system: Rattus norvegicus; assay: Ability to mobilize Bone-Calcium transport, following the administration of compound in rats at a concentration of 500 pmol at 72 hr.; assay type: functional, organism-based
[25] = system: Rattus norvegicus; assay: Ability to stimulate intestinal-calcium transport by the administration of compound in rats at a concentration of 5 pmol at 47 hr.; assay type: functional, Intestine
[26] = system: Rattus norvegicus; assay: Ability to mobilize Bone-Calcium transport, following the administration of compound in rats at a concentration of 5000 pmol at 13 hr.; assay type: functional, organism-based
[27] = system: Rattus norvegicus; assay: Ability to mobilize Bone-Calcium transport, following the administration of compound in rats at a concentration of 50 pmol at 72 hr.; assay type: functional, organism-based
[28] = system: Rattus norvegicus; assay: Ability to stimulate intestinal-calcium transport by the administration of compound in rats at a concentration of 5 pmol at 72 hr.; assay type: functional, Intestine
[29] = system: Rattus norvegicus; assay: Ability to stimulate intestinal-calcium transport by the administration of compound in rats at a concentration of 500 pmol at 47 hr.; assay type: functional, Intestine
[30] = system: Rattus norvegicus; assay: Ability to stimulate intestinal-calcium transport by the administration of compound in rats at a concentration of 50 pmol at 47 hr.; assay type: functional, Intestine
[31] = system: Rattus norvegicus; assay: Ability to stimulate intestinal-calcium transport by the administration of compound in rats at a concentration of 5000 pmol at 47 hr.; assay type: functional, Intestine
[32] = system: Rattus norvegicus; assay: Ability to mobilize Bone-Calcium transport, following the administration of compound in rats at a concentration of 500 pmol at 13 hr.; assay type: functional, organism-based
[33] = system: Rattus norvegicus; assay: Ability to mobilize Bone-Calcium transport, following the administration of compound in rats at a concentration of 50 pmol at 13 hr.; assay type: functional, organism-based
[34] = system: Rattus norvegicus; assay: Ability to stimulate intestinal-calcium transport by the administration of compound in rats at a concentration of 50 pmol at 13 hr.; assay type: functional, Intestine
[35] = system: Rattus norvegicus; assay: Ability to mobilize Bone-Calcium transport, following the administration of compound in rats at a concentration of 5 pmol at 47 hr.; assay type: functional, organism-based
[36] = system: Rattus norvegicus; assay: Ability to mobilize Bone-Calcium transport, following the administration of compound in rats at a concentration of 5 pmol at 72 hr.; assay type: functional, organism-based
[37] = species: Rattus norvegicus; assay: Calcium binding protein induction in duodenal organ culture at a concentration of 1 nM in Male Albino rats; assay type: functional
[38] = species: Rattus norvegicus; assay: Calcium binding protein induction in duodenal organ culture at a concentration of 100 nM in Male Albino rats; assay type: functional
[39] = Relative potency against calcium binding protein induction in duodenal organ culture at a concentration of 10 nM compared to 1,25-(OH)2-D3 in Male Albino rats; assay type: functional
[40] = species: Rattus norvegicus; assay: Calcium binding protein induction in duodenal organ culture at a concentration of 10 nM in Male Albino rats; assay type: functional

SMILES	Serosal/Mucosal Ca [1]	Serosal/Mucosal Ca [2]	Serum Ca2+ [3]	Serosal/Mucosal Ca [4]	Serum Ca2+ [5]	Serosal/Mucosal Ca [6]	Serum Ca2+ [7]	Serum Ca2+ [8]	Serum Ca2+ [9]	Serum Ca2+ [10]	Serosal/Mucosal Ca [11]	Serum Ca2+ [12]	Serosal/Mucosal Ca [13]	Serosal/Mucosal Ca [14]	Serosal/Mucosal Ca [15]	Serum Ca2+ [16]	Serosal/Mucosal Ca [17]	Serum Ca2+ [18]	Serum Ca2+ [19]	Serosal/Mucosal Ca [20]	also measured
C=C1/C(=C\C=C2/CCC[C@]3(C)[C@@H]([C@H](C)CCC(F)(F)C(O)(CC)CC)CC[C@@H]23)C[C@@H](O)C[C@@H]1O	8.39	4.41	5.5 mg/dL	4.25	4.08 mg/dL	5.39	6.4 mg/dL	5.86 mg/dL	4.13 mg/dL	3.98 mg/dL	8	4.94 mg/dL	2.85	2.34	3.04	6.12 mg/dL	8.84	4.02 mg/dL	4.34 mg/dL	–	–
C=C1/C(=C\C=C2/CCC[C@]3(C)[C@@H]([C@H](C)CCCC(C)(C)O)CC[C@@H]23)C[C@@H](O)C[C@@H]1O [CALCITRIOL]	7	3.23	5.58 mg/dL	4.71	4.54 mg/dL	5.98	6.14 mg/dL	4.78 mg/dL	4.12 mg/dL	4.08 mg/dL	7.22	4.35 mg/dL	2.62	2.75	5.69	6.1 mg/dL	4.99	4.55 mg/dL	4.38 mg/dL	–	–
C=C1CC[C@H](O)C/C1=C/C=C1\CCC[C@]2(C)[C@@H]([C@H](C)CCCC(C)(C)O)CC[C@@H]12 [CALCIFEDIOL ANHYDROUS]	–	–	–	–	–	–	–	–	–	–	–	–	–	–	–	–	–	–	–	5.43	Serosal/Mucosal Ca [21]: 9.89; Serosal/Mucosal Ca [22]: 3.6; Serum Ca2+ [23]: 4.4 mg/dL; Serum Ca2+ [24]: 5.04 mg/dL; Serosal/Mucosal Ca [25]: 3.41; Serum Ca2+ [26]: 6.82 mg/dL; Serum Ca2+ [27]: 4.52 mg/dL; Serosal/Mucosal Ca [28]: 3.59; Serosal/Mucosal Ca [29]: 9.99; Serosal/Mucosal Ca [30]: 11.54; Serosal/Mucosal Ca [31]: 11.01; Serum Ca2+ [32]: 6.22 mg/dL; Serum Ca2+ [33]: 4.86 mg/dL; Serosal/Mucosal Ca [34]: 3.75; Serum Ca2+ [35]: 4.66 mg/dL; Serum Ca2+ [36]: 4.32 mg/dL
C=C1CC[C@H](O)C/C1=C/C=C1\CCC[C@]2(C)[C@@H]([C@H](C)CCC(F)(F)C(O)(CC)CC)CC[C@@H]12	–	–	–	–	–	–	–	–	–	–	–	–	–	–	–	–	–	–	–	4.84	Ca2+ binding protein [37]: 10.1 ug (100mg of duodenum)-1; Serosal/Mucosal Ca [21]: 7.29; Serosal/Mucosal Ca [22]: 5.85; Ca2+ binding protein [38]: 66.7 ug (100mg of duodenum)-1; Serum Ca2+ [23]: 4.2 mg/dL; Serum Ca2+ [24]: 4.38 mg/dL; Relative potency [39]: 4.5; Serosal/Mucosal Ca [25]: 2.59; Serum Ca2+ [26]: 5.92 mg/dL; Serum Ca2+ [27]: 4.64 mg/dL; Serosal/Mucosal Ca [28]: 2.2; Serosal/Mucosal Ca [29]: 8.04; Serosal/Mucosal Ca [30]: 3.29; Serosal/Mucosal Ca [31]: 11.06; Ca2+ binding protein [40]: 22.4 ug (100mg of duodenum)-1; Serum Ca2+ [32]: 5.14 mg/dL; Serum Ca2+ [33]: 4.14 mg/dL; Serosal/Mucosal Ca [34]: 2.18; Serum Ca2+ [35]: 4.34 mg/dL; Serum Ca2+ [36]: 4.2 mg/dL
